Results published in PubChem BioAssay (NCI).
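The compound was tested at five concentrations on cells cultured in 96-well plates, with a 48-hour exposure period. GI50: concentration for 50% inhibition of growth. TGI: total growth inhibition.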

Columns and labels:
Assay in all cases: inhibition of tumour cell growth, NCI panel, 48 h
[1] = test system: 786-0 renal
[2] = test system: A498 renal
[3] = test system: A549 NSCLC
[4] = test system: ACHN renal
[5] = test system: BT-549 breast
[6] = test system: CAKI-1 renal
[7] = test system: CCRF-CEM leukemia
[8] = test system: COLO 205 colon
[9] = test system: DU-145 prostate
[10] = test system: HCC-2998 colon
[11] = test system: HCT-116 colon
[12] = test system: HCT-15 colon
[13] = test system: HL-60(TB) leukemia
[14] = test system: HOP-62 NSCLC
[15] = test system: HOP-92 NSCLC
[16] = test system: HS 578T breast
[17] = test system: HT29 colon
[18] = test system: IGROV1 ovarian
[19] = test system: K-562 leukemia
[20] = test system: KM12 colon
[21] = test system: LOX IMVI melanoma
[22] = test system: M14 melanoma
[23] = test system: MALME-3M melanoma
[24] = test system: MCF7 breast
[25] = test system: MDA-MB-231 breast
[26] = test system: MDA-MB-435
[27] = test system: MOLT-4 leukemia
[28] = test system: NCI-H226 lung
[29] = test system: NCI-H23 lung
[30] = test system: NCI-H460 lung
[31] = test system: NCI-H522 lung
[32] = test system: NCI/ADR-RES ovarian
[33] = test system: OVCAR-3 ovarian
[34] = test system: OVCAR-4 ovarian
[35] = test system: OVCAR-5 ovarian
[36] = test system: OVCAR-8 ovarian
[37] = test system: PC-3 prostate
[38] = test system: RPMI-8226 leukemia
[39] = test system: RXF 393 renal
[40] = test system: SF-268 CNS
[41] = test system: SF-295 CNS
[42] = test system: SF-539 CNS
[43] = test system: SK-MEL-2 melanoma
[44] = test system: SK-MEL-28 melanoma
[45] = test system: SK-MEL-5 melanoma
[46] = test system: SK-OV-3 ovarian
[47] = test system: SN12C renal
[48] = test system: SNB-19 CNS
[49] = test system: SNB-75 CNS
[50] = test system: SR leukemia
[51] = test system: SW-620 colon
[52] = test system: T-47D breast
[53] = test system: TK-10 renal
[54] = test system: U251 CNS
[55] = test system: UACC-257 melanoma
[56] = test system: UACC-62 melanoma
[57] = test system: UO-31 renal

Nc1cc2nc3ccccc3sc-2cc1=O
GI50 [1]: 4.21 µM
TGI [1]: 14.5 µM
GI50 [2]: 2.32 µM
TGI [2]: 8.71 µM
GI50 [3]: 2.06 µM
TGI [3]: 4.82 µM
GI50 [4]: 2.5 µM
TGI [4]: 11.1 µM
GI50 [5]: 1.61 µM
TGI [5]: 3.32 µM
GI50 [6]: 5.66 µM
TGI [6]: 22.1 µM
GI50 [7]: 2.47 µM
TGI [7]: > 100 µM
GI50 [8]: 2.16 µM
TGI [8]: 4.61 µM
GI50 [9]: 1.77 µM
TGI [9]: 3.25 µM
GI50 [10]: 3.95 µM
TGI [10]: 13.3 µM
GI50 [11]: 2.56 µM
TGI [11]: 10.3 µM
GI50 [12]: 1.44 µM
TGI [12]: 11.1 µM
GI50 [13]: 2.07 µM
TGI [13]: 5.78 µM
GI50 [14]: 2.51 µM
TGI [14]: 5.71 µM
GI50 [15]: 2.77 µM
TGI [15]: 9.59 µM
GI50 [16]: 2.21 µM
TGI [16]: 6.24 µM
GI50 [17]: 2.92 µM
TGI [17]: 6.86 µM
GI50 [18]: 3.02 µM
TGI [18]: 13.1 µM
GI50 [19]: 2.48 µM
TGI [19]: > 100 µM
GI50 [20]: 10.8 µM
TGI [20]: 30.6 µM
GI50 [21]: 1.48 µM
TGI [21]: 3.74 µM
GI50 [22]: 1.66 µM
TGI [22]: 3.2 µM
GI50 [23]: 2.04 µM
TGI [23]: 3.62 µM
GI50 [24]: 2.38 µM
TGI [24]: 9.63 µM
GI50 [25]: 1.76 µM
TGI [25]: 11.8 µM
GI50 [26]: 1.76 µM
TGI [26]: 3.26 µM
GI50 [27]: 4.26 µM
TGI [27]: > 100 µM
GI50 [28]: 4.62 µM
TGI [28]: 28.4 µM
GI50 [29]: 1.54 µM
TGI [29]: 3.76 µM
GI50 [30]: 2.9 µM
TGI [30]: 10.2 µM
GI50 [31]: 2.46 µM
TGI [31]: 5.87 µM
GI50 [32]: 2.96 µM
TGI [32]: 16.7 µM
GI50 [33]: 1.76 µM
TGI [33]: 7.09 µM
GI50 [34]: 2.15 µM
TGI [34]: 6.21 µM
GI50 [35]: 1.93 µM
TGI [35]: 4.08 µM
GI50 [36]: 3.17 µM
TGI [36]: 13.8 µM
GI50 [37]: 1.51 µM
TGI [37]: 21.8 µM
GI50 [38]: 2.54 µM
TGI [38]: 26.4 µM
GI50 [39]: 2.13 µM
TGI [39]: 6.14 µM
GI50 [40]: 2.53 µM
TGI [40]: 8.67 µM
GI50 [41]: 2.44 µM
TGI [41]: 7.35 µM
GI50 [42]: 2.01 µM
TGI [42]: 4.26 µM
GI50 [43]: 2.03 µM
TGI [43]: 4.24 µM
GI50 [44]: 2.12 µM
TGI [44]: 4.04 µM
GI50 [45]: 1.55 µM
TGI [45]: 2.93 µM
GI50 [46]: 13.1 µM
TGI [46]: 53.5 µM
GI50 [47]: 1.72 µM
TGI [47]: 3.4 µM
GI50 [48]: 6.13 µM
TGI [48]: 20 µM
GI50 [49]: 2.59 µM
TGI [49]: 7.71 µM
GI50 [50]: 4.27 µM
TGI [50]: > 100 µM
GI50 [51]: 2.95 µM
TGI [51]: 10.4 µM
GI50 [52]: 5.96 µM
TGI [52]: 33.7 µM
GI50 [53]: 5.72 µM
TGI [53]: 16.2 µM
GI50 [54]: 3.63 µM
TGI [54]: 15.1 µM
GI50 [55]: 2.3 µM
TGI [55]: 5.83 µM
GI50 [56]: 1.55 µM
TGI [56]: 3.33 µM
GI50 [57]: 1.33 µM
TGI [57]: 3.36 µM
